System: Hela cells
Test: RAD51 and 53BP1 repair foci by immunofluorescence in Hela cells with EZH2 inhibition
Assay type: cell-based, human
Details: 72 h, 1 μM, damaged with camptothecin (3 h, 0.1 μM), FIG. 2B
Procedure: Camptothecin (CPT, Sigma-Aldrich) was used at 0.1 μM for 3 h, or at 1 μM for 1 or 3 h for iPOND in human cells, and at 5 or 10 μM in yeast cells; hydroxyurea (HU, Sigma-Aldrich) at 2 mM for 3 h; mitomycin C (MMC, Sigma-Aldrich) at 200 ng/ml and 25 ng/ml for 24 h for repair foci analyses and metaphase spreads, respectively; bleomycin (Bleo, Sigma-Aldrich) at 20 µg/mL for 3 h. An overnight treatment with 2 mM Thymidine followed by 3 h release in fresh medium was used to enrich cells in S phase for iPOND experiments (70-75% of cells were in S phase as evaluated by FACS). The EZH2 inhibitor GSK126 (EZH2i, Selleckchem) was used at 1 μM for 72 h.
Cells grown on glass coverslips (VWR) were either fixed directly with 2% paraformaldehyde (PFA) and permeabilized with 0.2% Triton X-100 in PBS or pre-extracted before fixation with 0.5% Triton X-100 in CSK buffer (Cytoskeletal buffer: 10 mM PIPES pH 7.0, 100 mM NaCl, 300 mM sucrose, 3 mM MgCl2) to remove soluble proteins (not bound to chromatin) and then fixed with 2% PFA. […] Images were mounted with Adobe Photoshop applying the same treatment of fluorescence levels to all images from the same experiment. […] The position of the LacO array was determined based on mCherry-LacR signal. DNA repair and PLA foci were identified and counted by using the find maxima function (Fiji software), on maximum intensity z-projections in the case of PLA foci. […]

For `CC[C@H](C)n1cc(C)c2c(C(=O)NCc3c(C)cc(C)[nH]c3=O)cc(-c3ccc(N4CCNCC4)nc3)cc21` [EZH2i, GSK126], the “RAD51 and 53BP1 foci (DNA repair defect)” value was “did not recapitulate the DNA repair defect”.
